Data: US10933075B2, “Materials and methods for suppressing and/or treating bacterial infections and related symptoms” (Indiana University Research and Technology Corporation, priority 2017, dated 2021)

Experiments:
[1] = test system: S. aureus USA300; experiment: Murine model of peritoneal infection (survival, anti-virulence effect); format: in vivo, mice; conditions: for anti-virulence activity against S. aureus infection in mice (percent survival): S. aureus 2×10^8 CFU i.p., n=10-18 (FIGS. 4-6); for anti-virulence effect: mice i.p. infected with S. aureus USA300, 50 μg i.p. once every day for 7 days, from one hour post infection; for anti-virulence effect, confirmation by repeating the mouse experiment: repeat of the mouse experiment; for in vivo efficacy, dose dependence: administered after infection for 7 days (FIG. 7)
Protocol: FIG. 4. Effect of Streptozotocin on survival. […] Open circles represent percent survival of treated mice (i.e., steptozotocin) after the indicated period. Closed circles represent percent survival of untreated mice (i.e., control). S. aureus (2×10^8 CFU) were i.p. injected into mice (n=10-18).
In this model, mice were i.p. infected with S. aureus USA300. One hour post infection, the test compounds were administered via i.p. injection once every day for 7 days.
To determine the minimal dosage of the compounds for their protective effect, a different amount of the compounds (0-100 μg) were administered after S. aureus infection for 7 days as described above.
The biological half-life of streptozotocin is about 35-40 min. […] Although we administered the compounds every day for 7 days, due to their short half-lives, it is likely that S. aureus cells were exposed to the compounds only briefly. […] To examine the hypothesis, after 2 h post infection with S. aureus, we administered the compounds only once (25 μg for streptozotocin and floxuridine; 50 μg for doxorubicin) and watched the infected mice for 7 days.

[2] = test system: SaeRS two component system (P1 promoter); experiment: pYJ-P1-GFP reporter, Sae activity (P1 promoter activity); format: cell-based, S. aureus strain USA300; conditions: grown in TSB for 3 h, various concentrations (FIG. 3B)
Protocol: FIG. 3B. Graph illustrating the effect of three compounds on Sae activity of Staphylococcus aureus. Cells were grown in TSB for 3 hours in the presence of the compounds (e.g., Streptozotocin, Floxuridine, and Doxorubicin) using various concentrations as indicated. The P1 promoter has two SaeR binding sites and its activity is an excellent indicator for the Sae activity.
The sae operon consists of four genes (saeP, saeQ, saeR, and saeS), and the two promoters P1 and P3. The P1 promoter resides in the front of the very first gene saeP and can transcribe all four genes. The P1 promoter has two SaeR binding sequences (SBSs). The P1 promoter in front of the sae operon is well characterized target of the SaeRS two component system. Here, the reporter plasmid pYJ-P1-GFP was used in the library screening and the expression level of GFP was interpreted as the Sae activity.
(§1) In the library screening, S. aureus strain USA300 was grown with pYJ-P1-GFP in the presence of 10 μM test compound for 3 hours. Then the effects of the each drug on growth and GFP expression were measured. In the primary screening, about 9,000 test compounds (3,000 FDA-approved drugs, 6,000 DCL library compounds) were tested.
(§2) Referring now to FIGS. 3A and 3B, the effects of the three compounds on growth (A) and Sae activity (B) of Staphylococcus aureus were measured. The cells were grown in TSB for 3 h in the presence of the compounds with various concentrations as indicated.

[3] = test system: Staphylococcus aureus; experiment: Effect on growth of Staphylococcus aureus; format: cell-based; conditions: grown in TSB for 3 h, various concentrations (FIG. 3A)
Protocol: FIG. 3A. Graph illustrating the effect of three compounds on growth of Staphylococcus aureus. Cells were grown in TSB for 3 hours in the presence of the compounds (e.g., Streptozotocin, Floxuridine, and Doxorubicin) using various concentrations as indicated.
as §1, §2

[4] = test system: Agr quorum sensing system, Arl two-component system, SarA DNA binding protein; experiment: qRT-PCR of agrC, arlS, sarA transcription normalized by gyrB; format: cell-based, S. aureus USA300; conditions: 1 μg/mL (=3.8 μM for streptozotocin, 4 μM for floxuridine), 3 h (FIG. 9)
Protocol: FIG. 9. Streptozotocin (SZ) and floxuridine (FU) repress other signalling systems critical for staphylococcal virulence. The transcription level of the indicated genes was analyzed by qRT-PCR and normalized by the transcription level of gyrB. agrC, the gene of the sensor kinase of the Agr quorum sensing system; arlS, the gene of the sensor kinase of the Arl two componenet system; sarA, the gene of the DNA binding protein SarA; NT, no treatment.
The virulence of S. aureus is thought to be controlled by multiple signaling systems. Along with the Sae signaling system, the Agr quorum sensing system, Arl two-component system, and SarA DNA binding protein are known to contribute to staphylococcal virulence. To explain the high in vivo efficacy of streptozotocin and floxuridine, S. aureus USA300 was treated with 1 μg/mL (=3.8 μM for streptozotocin, 4 μM for floxuridine) for 3 h, purified total RNA and carried out qRT-PCR.

[5] = in vivo; cited from earlier work

| Structure (SMILES) | anti-virulence activity against S. aureus infection in mice (percent survival) [1] | anti-virulence effect [1] | anti-virulence effect, confirmation by repeating the mouse experiment [1] | Sae activity (P1 promoter activity) [2] | growth of Staphylococcus aureus [3] | transcription level of agrC, arlS, sarA (signaling systems critical for virulence) [4] | further results |
| --- | --- | --- | --- | --- | --- | --- | --- |
| COc1cccc2c1C(=O)c1c(O)c3c(c(O)c1C2=O)C[C@@](O)(C(=O)CO)C[C@@H]3O[C@H]1C[C@H](N)[C@H](O)[C@H](C)O1 [Doxorubicin] | exhibited anti-virulence activity | anti-virulence effect | significant anti-virulence effect | reduced P1 promoter activity | reduced growth | – | – |
| CN(N=O)C(=O)NC1C(O)[C@H](O)C(CO)O[C@H]1O (stereo partly shown) [Streptozotocin] | exhibited anti-virulence activity | anti-virulence effect | significant anti-virulence effect | reduced P1 promoter activity | reduced growth | inhibit multiple signaling systems | in vivo efficacy, dose dependence ([1]; 5 μg): statistically significant in vivo efficacy; in vivo efficacy, dose dependence ([1]; 10-100 μg): comparable in vivo efficacy; biological half-life [5]: 35-40 min |
| O=C1OC2(c3ccccc31)c1cc(I)c(O)c(I)c1Oc1c2cc(I)c(O)c1I [Erythrosine sodium] | – | anti-virulence effect | – | – | – | – | – |
| O=c1[nH]c(=O)n([C@H]2C[C@H](O)[C@@H](CO)O2)cc1F [Floxuridine] | exhibited anti-virulence activity | anti-virulence effect | significant anti-virulence effect | reduced P1 promoter activity | reduced growth | inhibit multiple signaling systems | in vivo efficacy, dose dependence ([1]; 10 μg): statistically significant in vivo efficacy; catabolism [5]: rapidly catabolized to 5′fluorouracil |
| O=c1[nH]cc(F)c(=O)[nH]1 [5-FU, 5′fluorouracil] | – | – | – | – | – | – | half-life [5]: 8 to 14 min |
| CC(=O)[C@H]1CC[C@H]2[C@@H]3CC=C4C[C@@H](OC(=O)CCC(=O)O)CC[C@]4(C)[C@H]3CC[C@]12C [Pregnenolone succinate] | – | anti-virulence effect | – | – | – | – | – |
